The record followed here is patent US20170152226A1, “FUNCTIONALISED AND SUBSTITUTED INDOLES AS ANTI-CANCER AGENTS” (Novogen Ltd., priority 2014, published 2017).

One data set relates to A549. The data set can be described thus: Anti-proliferative activity, cell-titre luminescent viability assay. Type of data set: cell-based. Particulars: Homo sapiens, A549, 72 h, 0.03, 0.3, 3 and 30 μM, linear regression of semi-log plots, read-out: IC50 Lung (NSLC) A549. In a few lines: (§1)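 Cells were seeded at pre-determined densities, cultured 24 hours at 37° C/5% CO2, then exposed 72 hours to compound at 0.03, 0.3, 3 and 30 μM or at 0.1, 0.3, 1, 3, 10 and 30 μM. Viability was read by cell-titre luminescence after 30 min, normalized to untreated control, and IC50 or EC50 derived.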

The next data set relates to CaCo2. Described as above. Type of data set: cell-based. Particulars: Homo sapiens, Caco-2, 72 h, 0.03, 0.3, 3 and 30 μM, linear regression of semi-log plots, read-out: IC50 Colorectal CaCo2. In a few lines: as §1
Another data set concerns DU145. The data set is described as above. The data set is classed as cell-based. Particulars: Homo sapiens, DU-145, 72 h, 0.03, 0.3, 3 and 30 μM, linear regression of semi-log plots, read-out: IC50 Prostate DU145. In a few lines:
as §1

Another data set deals with MDA-MB-231. The description is as above. Particulars: Homo sapiens, MDA-MB-231, 72 h, 0.03, 0.3, 3 and 30 μM, linear regression of semi-log plots, read-out: IC50 Breast MDA-MB-231. Type of data set: cell-based. In a few lines: as §1
Another data set concerns PC3. Described as above. The data set is classed as cell-based. Particulars: Homo sapiens, PC-3, 72 h, 0.03, 0.3, 3 and 30 μM, linear regression of semi-log plots, read-out: IC50 Prostate PC3. In a few lines: as §1
Another data set relates to SK-Mel-28. Described as above. The data set is classed as cell-based. Particulars: Homo sapiens, SK-MEL-28; 72 hours; 0.03, 0.3, 3 and 30 μM; linear regression of semi-log plots; read-out: IC50 Melanoma SK-Mel-28. In a few lines: as §1
Another data set relates to SK-N-SH. The description is as above. Type of data set: cell-based. Particulars: Homo sapiens, SK-N-SH, 72 h, 0.03, 0.3, 3 and 30 μM, linear regression of semi-log plots, read-out: IC50 Neuroblastoma SK-N-SH. In a few lines:
as §1

In the next data set the test system is CHLA20 tumours. The data set can be described thus: CHLA20 neuroblastoma xenograft model. Type of data set: in vivo. Particulars: 150 mg/kg IP daily, 18 days. As to the method: FIG. 4: Compound 3507/30% w/v Dexolve-7 was administered IP daily at 150 mg/kg for 18 days in a flank xenograft model of neuroblastoma (CHLA-20). Tumour volume was measured every 2-3 days.
The in vivo efficacy of compound 3507 was evaluated in the CHLA20 neuroblastoma xenograft model. CHLA20 tumours were established in athymic nude mice by injecting 1.0×10^7 tumour cells subcutaneously in the right flank. Dosing of animals commenced when tumour volume reached ˜200-400 mm^3. Animals (˜n=5+) were randomly divided into treatment and control groups. Compound 3507 was dosed daily by intraperotineal (IP) injection at 150 mg/kg in 30% w/v Captisol (a cyclodextrin-containing formulation).

Another data set has as its system A375 tumours. The data set can be described thus: Human melanoma (A375) xenograft model. The data set is classed as in vivo. Particulars: 60 mg/kg intravenously twice a week. As for the experimental part:
FIG. 5: Compound 3507/30% w/v Dexolve-7 was administered IV 2×/week at 60 mg/kg for 14 days in a flank xenograft model of melanoma (A375). Tumour volume was measured every 2-3 days. ** p<0.01.
The in vivo efficacy of 3507 was also evaluated in a human melanoma (A375) xenograft model. A375 tumours were established in female Foxn-1 nu/nu athymic mice by injecting approximately five million cells subcutaneously in the right flank region of the animal. When the tumours reached 130-150 mm^3 the animals were randomized into four groups, (n=8 or 12 animals/group) so that the average tumour volume of all the groups was same. Group 1 received vehicle (30% w/v Dexolve-7 in sterile water) twice a week intravenously, and Group 2 was dosed with 3507/Dexolve-7 at 60 mg/kg, twice a week intravenously. Tumours and body weight was measured two to three times in a week. In addition, throughout the study period mice were monitored daily for clinical condition.

For the molecule `Cc1c(C)n(CCCN2CCN(C)CC2)c2ccc(Oc3cccc(C(=O)N4CCN(CCc5ccc(F)cc5)CC4)c3)cc12` [Compound 3507, (3-((2,3-dimethyl-1-(3-(4-methylpiperazin-1-yl)propyl)-1H-indol-5-yl)oxy)phenyl)(4-(4-fluorophenethyl)piperazin-1-yl)methanone], the IC50 was determined as 1.2 µM with A549; 2.5 µM with CaCo2; 1.3 µM with DU145; 1.4 µM with MDA-MB-231; 1.2 µM with PC3; 1 µM in the data set on SK-Mel-28. Also, the IC50 in the data set on SK-N-SH was 1.4 µM. Also, the tolerability result in the data set with CHLA20 tumours and with A375 tumours was “well tolerated” in each case. In the data set with A375 tumours (after 14 days treatment), the “reduction of melanoma tumour growth compared to vehicle control” value is reported as ~60%. For the same molecule, the body weights entry in the data set with A375 tumours (throughout the study period) is given as “comparable to the control group”.
